Reference: US11919854B2, “P2RX7 modulators in therapy” (Centre national de la recherche scientifique, priority 2018, dated 2024)
“Also recorded” adds a separate entry of the source.

Key:
[1] = target: T1, mouse P2RX7 (Mus musculus, UniProt Q9Z1M0); assay: Calcium influx and large cation permeation by FACS, 15 min, HEK cells with mouse P2RX7, increasing doses of BzATP; type: cell-based; conditions: 15 min stimulation
T1 construct: expressed in transfected cells; host or cells: HEK cells
T1 sequence (Q9Z1M0 1-595): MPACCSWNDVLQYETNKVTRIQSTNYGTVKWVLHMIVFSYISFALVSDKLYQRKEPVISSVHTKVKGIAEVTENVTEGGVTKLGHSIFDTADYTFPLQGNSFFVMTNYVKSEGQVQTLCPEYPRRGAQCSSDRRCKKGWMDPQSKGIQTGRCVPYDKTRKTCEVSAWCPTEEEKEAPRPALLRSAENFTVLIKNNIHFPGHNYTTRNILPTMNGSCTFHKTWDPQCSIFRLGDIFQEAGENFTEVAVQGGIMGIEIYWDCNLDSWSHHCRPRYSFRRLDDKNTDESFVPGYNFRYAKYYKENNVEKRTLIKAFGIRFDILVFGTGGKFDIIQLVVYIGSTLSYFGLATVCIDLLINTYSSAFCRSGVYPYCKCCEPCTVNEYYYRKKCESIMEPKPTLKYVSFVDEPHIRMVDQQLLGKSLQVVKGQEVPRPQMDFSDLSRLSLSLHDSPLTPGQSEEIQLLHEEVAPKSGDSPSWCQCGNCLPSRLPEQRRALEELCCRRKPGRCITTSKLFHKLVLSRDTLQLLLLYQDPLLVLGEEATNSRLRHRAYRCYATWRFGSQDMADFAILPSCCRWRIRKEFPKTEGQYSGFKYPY
Protocol: Calcium influx (Fluo-AM positive cells) and large cation permeation (Topro3 positive cells) were assayed by FACS 15 min after stimulation of HEK cells transfected with the mouse P2RX7 treated with increasing doses of BzATP.
Complementary analyses were also performed to document the biological activity of HEI3090, the more soluble version of HEI2328, on both HEK cells expressing mouse P2RX7 (mP2RX7) (FIG. 14) or human P2RX7 (hP2RX7) (FIG. 15). BzATP or ATP stimulate channel activity, an event that occurred in the first minutes of P2RX7 stimulation. […] The same positive effect was observed on cells expressing human P2RX7 (FIG. 15).

[2] = tested on: P2RX7; assay: Large pore opening in splenocytes from control or p2rx7 KO mice; type: cell-based, mouse; conditions: HEI3090 50 μM, BzATP 500 μM
Protocol: A. Splenocytes from control or p2rx7^exon2 KO mice were isolated and treated with HEI3090 (50 μM) in presence of absence of BzATP (500 μM). B. Large pore opening induced by increasing concentration of BzATP in presence or absence of HEI3090 in human P2RX7 expressing cells.
Indeed, with the same BzATP concentration, more cells are positive for Topro3 staining.

With `O=C(NCc1ccc(Cl)cc1Cl)[C@@H]1CCC(=O)N1C(=O)Nc1ccc(Cl)nc1` [HEI3090, (S)—N^1-(6-Chloropyridin-3-yl)-N^2-(2,4-dichlorobenzyl)-5-oxopyrrolidine-1,2-dicarboxamide] the “decrease of the EC50 (BzATP) in the presence of HEI3090” value ([1]; increasing doses of BzATP, HEI3090 250 nM) was 22%, the “shift of the EC50 for BzATP” value ([1]; low dose of HEI3090 (250 nM)) was “shift to the left of the EC50 for BzATP” and the “Topro3 incorporation / effect in splenocytes from P2rx7 KO mice” value [2] was “Topro3 incorporation is lost; also recorded: absence of effect”. The “large pore opening in presence of BzATP” value ([2]; splenocytes from control mice) was “potentializes large pore opening in presence of BzATP”.
